{
  "source": "patent US5594001A",
  "about": "“Polycyclic systems, and derivatives thereof, as neurotransmitter release enhancers useful in the treatment of cognitive disorders” (The DuPont Merck Pharmaceutical Company, priority 1994, dated 1997)",
  "test_system": "ACh level in the rat hippocampus",
  "assay": "Microdialysis, ACh levels in the rat hippocampus in vivo",
  "set-up": "species or system rat (male Wistar)",
  "details": "for AUC, Area % under the curve / Peak, maximal % increase of ACh release over baseline / time of Peak after administration / Duration, minutes of release above statistical significance: Table IV",
  "method": "Male Wistar Rats are anaesthetized and guide cannulas stereotaxically implanted into the brain at the level of the dorsal hippocampus. Following a minimum recovery period of 72 h, dialysis probes (0.5 mm diameter, 4.0 mm long, from BAS) are inserted into the hippocampus through the guide cannulas. The probes are perfused at a rate of 2 μl/min with artificial cerebrospinal fluid containing 100 μM physostigmine sulfate (a cholinesterase inhibitor). Rats are allowed to acclimate for 2 hours prior to sample collection. Dialysate samples are collected every 20 min (40 μl) and immediately injected onto a high performance liquid chromatograph equipped for electrochemical detection (HPLC-EC) of acetylcholine (ACh). Following collection of 3 baseline samples, drugs or vehicle control are administered in 0.01 ml/g body weight and dialysate samples are collected for an additional 3 h. The ACh peak heights of the 3 samples prior to drug administration are averaged together to determine baseline ACh levels. ACh peak heights post drug administration are measured and used to determine percent change over baseline ACh levels. At the end of experiments, probe placement is verified histologically.\nACh is separated by reverse phase chromatography (Hamilton PRP-1 column 150×4.5 mm) and converted to acetate, betaine and hydrogen peroxide on an immobilized enzyme reactor column (BAS). Hydrogen peroxide is then detected electrochemically. Mobile phase for the chromatography consists of 0.2M Na2 HPO4, 0.1 mM EDTA, 0.5 mM SOS, 0.9 mM TMA.Cl, with pH adjusted to 8.0 with phosphoric acid and […] Kathon CG (ESA) added to each liter of mobile phase to retard bacterial growth.\nFIGS. 1 and 2 show the effects of fluorine substitution to the pendant groups of the anthrone and azafluorene core series on the ability of compounds to increase the level of ACh in the rat hippocampus in vivo. All compounds were tested at 5 mg/kg except Ex. No 64 which was administered at 1 mg/kg. […] This was observed even though the compound was administered by a route (i.p.) which should lead to greater bioavailability than the oral route. Example 68 of the present invention, the bis-fluorinated analog of Example 611 or U.S. Pat. No. 5,173,489, on the other hand, led to a 2-fold increase in ACh levels which was maintained for over 1 hour (FIG. 1). The anthrone compound Ex. No. 440 of U.S. Pat. No. 5,173,489, at 5 mg/kg, led to a peak ACh level of 72% over baseline (FIG. 2). Ex. No. 64 of the present invention, which is the bis-fluoro analog of Ex. No. 440 of U.S. Pat. No. 5,173,489, at 1 mg/kg, led to a delayed increase in ACh levels reaching a peak of over 100% above baseline (FIG. 2). In contrast to the observed effects of Example 440 of U.S. Pat. No. 5,173,489, the increase in ACh level after administration of Example 64 of the present invention was maintained for the entire duration of testing (3 hours).",
  "key": {"[1]": {"details": "5 mg/kg, vehicle methocel, NSP = no significant points"}},
  "data": [
    {"smiles": "O=C1c2ccccc2C(Cc2ccncc2)(Cc2ccncc2)c2ccccc21", "note": "[Ex 440 U.S. Pat. No. 5,173,489, reference compound]", "values": [
      {"measurement": "peak ACh level over baseline", "setting": "5 mg/kg oral, FIG. 2", "value": 72, "unit": "%"},
      {"measurement": "AUC, Area % under the curve", "setting": "5 mg/kg, vehicle water", "value": "44 ± 34", "unit": "%"},
      {"measurement": "Peak, maximal % increase of ACh release over baseline", "setting": "5 mg/kg, vehicle water", "value": "18 ± 15", "unit": "%"},
      {"measurement": "time of Peak after administration", "setting": "5 mg/kg, vehicle water", "value": 20, "unit": "min"},
      {"measurement": "Duration, minutes of release above statistical significance", "setting": "5 mg/kg, vehicle water, NSP = no significant points", "value": "NSP"},
      {"measurement": "AUC, Area % under the curve", "setting": "10 mg/kg, vehicle water", "value": "705 ± 112", "unit": "%"},
      {"measurement": "Duration, minutes of release above statistical significance", "setting": "10 mg/kg, vehicle water", "value": 100, "unit": "min"},
      {"measurement": "Peak, maximal % increase of ACh release over baseline", "setting": "10 mg/kg, vehicle water", "value": "127 ± 31", "unit": "%"},
      {"measurement": "time of Peak after administration", "setting": "10 mg/kg, vehicle water", "value": 60, "unit": "min"}
    ]},
    {"smiles": "c1ccc2c(c1)-c1ncccc1C2(Cc1ccncc1)Cc1ccncc1", "note": "[Ex. No 611 of U.S. Pat. No. 5,173,489, reference compound]", "values": [
      {"measurement": "effect on ACh levels over what was observed after vehicle administration", "setting": "5 mg/kg i.p., FIG. 1", "value": "no effect on ACh levels"}
    ]},
    {"smiles": "Oc1ccc2c(c1)C(Cc1ccnc(F)c1)(Cc1ccnc(F)c1)c1ccccc1-2", "note": "[Example 61, 9,9-Bis((2-fluoro-4-pyridinyl)methyl)-2-hydroxy-9H-fluorene]", "values": [
      {"measurement": "AUC, Area % under the curve", "setting": "5 mg/kg, vehicle methocel", "value": "95 ± 61", "unit": "%"},
      {"measurement": "Peak, maximal % increase of ACh release over baseline", "setting": "5 mg/kg, vehicle methocel", "value": "48 ± 22", "unit": "%"},
      {"measurement": "time of Peak after administration", "setting": "5 mg/kg, vehicle methocel", "value": 20, "unit": "min"},
      {"measurement": "Duration, minutes of release above statistical significance", "setting": "[1]", "value": 40, "unit": "min"}
    ]},
    {"smiles": "O=S1(=O)c2ccccc2C(Cc2ccnc(F)c2)(Cc2ccnc(F)c2)c2ccccc21", "note": "[Example 107, 5,5-Bis-(2-fluoropyridin-4-ylmethyl)thioxanthene-10,10-dioxide]", "values": [
      {"measurement": "AUC, Area % under the curve", "setting": "5 mg/kg, vehicle methocel", "value": "281 ± 226", "unit": "%"},
      {"measurement": "Peak, maximal % increase of ACh release over baseline", "setting": "5 mg/kg, vehicle methocel", "value": "41 ± 10", "unit": "%"},
      {"measurement": "time of Peak after administration", "setting": "5 mg/kg, vehicle methocel", "value": 20, "unit": "min"},
      {"measurement": "Duration, minutes of release above statistical significance", "setting": "[1]", "value": "NSP"}
    ]},
    {"smiles": "[O-][S+]1c2ccccc2C(Cc2ccnc(F)c2)(Cc2ccnc(F)c2)c2ccccc21", "note": "[Example 108, 5,5-Bis(2-fluoropyridin-4-ylmethyl)thioxanthene-10-oxide]", "values": [
      {"measurement": "AUC, Area % under the curve", "setting": "1 mg/kg, vehicle methocel", "value": "184 ± 124", "unit": "%"},
      {"measurement": "Peak, maximal % increase of ACh release over baseline", "setting": "1 mg/kg, vehicle methocel", "value": "34 ± 19", "unit": "%"},
      {"measurement": "time of Peak after administration", "setting": "1 mg/kg, vehicle methocel", "value": 100, "unit": "min"},
      {"measurement": "Duration, minutes of release above statistical significance", "setting": "1 mg/kg, vehicle methocel, NSP = no significant points", "value": "NSP"},
      {"measurement": "AUC, Area % under the curve", "setting": "5 mg/kg, vehicle methocel", "value": "799 ± 202", "unit": "%"},
      {"measurement": "Peak, maximal % increase of ACh release over baseline", "setting": "5 mg/kg, vehicle methocel", "value": "108 ± 80", "unit": "%"},
      {"measurement": "time of Peak after administration", "setting": "5 mg/kg, vehicle methocel", "value": 80, "unit": "min"},
      {"measurement": "Duration, minutes of release above statistical significance", "setting": "[1]", "value": ">"}
    ]}
  ]
}
